# Patent US4900749A, “Isoprenoidamine compounds useful as antiulcer agents” (Shionogi & Co., Ltd., priority 1985, dated 1990)
# Tests used:
# [1] = system: lesion formation; experiment: inhibition of 60% ethanol/150 mM hydrochloric acid-induced stomach lesion formation (Experiment 1); type: in vivo, Male SD rats; settings: Rattus norvegicus, 1 h
# Method: Male SD rats, weighing 200-300 g, were allowed to fast for 24 hours. One milliliter of 60% ethanol (v/v) in 150 mM hydrochloric acid was given orally 1 hour after oral or intraperitoneal administration of test compound as a suspension in 5% gum arabic, and the animals were killed with an overdose of ether 1 hour later. The stomachs were removed and opened along the greater curvature. The total length (mm) of each lesion was measured for use as the lesion index and inhibition (%) of lesion formation by the test compound was calculated by comparing with that of 5% gum arabic as control.
# Geranylgeranylacetone (hereinafter abbreviated as GGA) was employed as a reference compound.
# [2] = system: acid secretion; experiment: inhibition of histamine-stimulated gastric acid secretion in perfused stomach (Experiment 2); type: in vivo, Male Jcl SD rats; settings: intraduodenal, during 90 minutes after administration, histamine dihydrochloride 3 mg/kg/hr
# Method: Male Jcl SD rats (body weight; about 300 g) were fast for 24 hours and anesthetized by urethane. Cannula was put into the trachea and into a jugular vein. After midline laparotomy, perfusion cannulae were introduced into the stomach through the pylorus and the esophagus. The animal was perfused with saline (1 ml/min) at 37° C. through the esophagus cannula. Perfusate was collected every 15 minutes through the pylorus cannula and titrated with 0.01N sodium hydroxide to measure acid secretion. Histamine dihydrochloride (3 mg/kg/hr) was infused through the jugular vein cannula and the test compound was administered intraduodenaly 90 minutes later. Acid output in perfusate every 15 minutes was measured in the same manner as described above. The rate of maximum inhibition (%) of acid secretion was calculated during 90 minutes after administration of the test compound compared with the acid output just before administration of the test compound.
# [3] = ip, Intraperitoneal administration
Compound,inhibition in vivo at 20 mg/kg ([1]; Oral administration) [%],"inhibition in vivo at 20 mg/kg [1, 3] [%]",also measured
CC(C)=CCCC(C)=CCCC(C)=CCCC(C)=CCNC(=O)CC#N [Compound I-36],56.4,72.2,
CC(C)=CCCC(C)=CCCC(C)=CCCC(C)=CCNC(=O)N1CCN(C)CC1 [Compound I-59],,53.3,
CC(C)=CCCC(C)=CCCC(C)=CCCC(C)=CCNC(=O)c1ccc[nH]1 [Compound I-26],9.6,,"inhibition in vivo at 10 mg/kg [1, 3]: 59.1%"
CC(C)=CCCC(C)=CCCC(C)=CCCC(C)=CCNC(=O)N1CCN(Cc2ccc3c(c2)OCO3)CC1 [Compound I-62],,46.1,
"CC(C)=CCCC(C)=CCCC(C)=CCCC(C)=CCNC(=O)N1CCOCC1 [Compound I-55, 1-[N-(3,7,11,15-Tetramethyl-2,6,10,14-hexadecatetraenyl)carbamoyl]morpholine]",,,"inhibition in vivo at 10 mg/kg ([1]; Oral administration): 22.2%; inhibition in vivo at 10 mg/kg [1, 3]: 76.7%; Inhibition (%): rate of maximum inhibition of acid secretion ([2]; 20 mg/kg): 51.1%; Inhibition (%): rate of maximum inhibition of acid secretion ([2]; 50 mg/kg): 77.7%"
CC(C)=CCCC(C)=CCCC(C)=CCCC(C)=CCNC(=O)Cc1ccccn1 [Compound I-29],,,"inhibition in vivo at 10 mg/kg [1, 3]: 64.3%"
CC(C)=CCCC(C)=CCCC(C)=CCCC(C)=CCNC(=O)Nc1ccccc1 [Compound I-82],,62.7,
CC(C)=CCCC(C)=CCCC(C)=CCCC(C)=CCNC(=O)c1ccccn1 [Compound I-20],24.2,83.1,
"CC(C)=CCCC(C)=CCCC(C)=CCCC(C)=CCNC(=O)c1ccncc1 [Compound I-22, N-(3,7,11,15-Tetramethyl-2,6,10,14 hexadecatetraenyl)isonicotinamide]",86.1,85.6,
CC(C)=CCCC(C)=CCCC(C)=CCCC(C)=CCNC(=O)NCc1cccnc1 [Compound I-71],44.2,68.5,
CC(C)=CCCC(C)=CCCC(C)=CCCC(C)=CCNC(=O)N1CCCCC1 [Compound I-56],,79.4,
"CC(=O)CCC=C(C)CCC=C(C)CCC=C(C)CCC=C(C)C [GGA, Geranylgeranylacetone, reference compound]",37.7,,"inhibition in vivo at 50 mg/kg ([1]; ip, Intraperitoneal administration, 50 mg/kg): 81%"
CC(C)=CCCC(C)=CCCC(C)=CCCC(C)=CCNC(=O)c1ccc([N+](=O)[O-])cc1 [Compound I-18],,75.1,
CC(C)=CCCC(C)=CCCC(C)=CCCC(C)=CCNC(=O)Cc1c[nH]cn1 [Compound I-31],,91,
CC(C)=CCCC(C)=CCCC(C)=CCCC(C)=CCNC(=O)c1ccccc1 [Compound I-9],,64.2,
CC(C)=CCCC(C)=CCCC(C)=CCCC(C)=CCNC(=O)NCCCN1CCOCC1 [Compound I-65],,35.5,
COCC(=O)NCC=C(C)CCC=C(C)CCC=C(C)CCC=C(C)C [Compound I-4],29.3,88.4,
"CC(C)=CCCC(C)=CCCC(C)=CCCC(C)=CCNC(=O)N(C)C [Compound I-81, N,N-Dimethyl-N'-(3,7,11,15-tetramethyl-2,6,10,14-hexadecatetraenyl)urea]",23.9,78.2,
CC(C)=CCCC(C)=CCCC(C)=CCCC(C)=CCNC(=O)c1ccco1 [Compound I-12],,,"inhibition in vivo at 10 mg/kg [1, 3]: 39.4%"
CC(C)=CCCC(C)=CCCC(C)=CCCC(C)=CCNC(=O)Cc1cccnc1 [Compound I-30],85.1,93.6,Inhibition (%): rate of maximum inhibition of acid secretion ([2]; 20 mg/kg): 57.4%; Inhibition (%): rate of maximum inhibition of acid secretion ([2]; 50 mg/kg): 99.5%
CC(C)=CCCC(C)=CCCC(C)=CCCC(C)=CCNC(N)=O [Compound I-57],,84,inhibition in vivo at 10 mg/kg ([1]; Oral administration): 36.2%
CC(C)=CCCC(C)=CCCC(C)=CCCC(C)=CCNC(=O)Cc1ccccc1 [Compound I-13],,65.3,
"CC(=O)NCC=C(C)CCC=C(C)CCC=C(C)CCC=C(C)C [Compound I-2, N-(3,7,11,15-Tetramethyl-2,6,10,14-hexadecatetraenyl)acetamide]",46.6,,"inhibition in vivo at 10 mg/kg [1, 3]: 71.7%"
CC(C)=CCCC(C)=CCCC(C)=CCCC(C)=CCNC(=O)c1cccnc1 [Compound I-21],64.5,99,
CC(C)=CCCC(C)=CCCC(C)=CCCC(C)=CCNC(=O)c1cccs1 [Compound I-24],11.8,,"inhibition in vivo at 10 mg/kg [1, 3]: 62.1%"
CC(C)=CCCC(C)=CCCC(C)=CCCC(C)=CCNC(=O)c1cnccn1 [Compound I-28],,80.4,
